Test results taken from ChEMBL document CHEMBL5512659, “Structure optimizing of flavonoids against both MRSA and VRE” (Eur J Med Chem, 2024).
Converted amounts (≈) assume the structure as drawn. The source made the active and inactive calls. The rule behind the calls is not given here.

Key:
[1] = test system: Cell membrane; experiment: Induction of membrane depolarization in multidrug resistant Enterococcus faecalis ATCC 51299 assessed as increase in fluorescence intensity at 2 to 4 times MIC by DiSC3(5) dye based analysis
[2] = test system: Staphylococcus aureus; experiment: Antibacterial activity against methicillin resistant Staphylococcus aureus clinical isolate 003 in presence of phosphatidylethanolamine; format: functional, organism-based
[3] = test system: Staphylococcus aureus; experiment: Bactericidal activity against methicillin-resistant Staphylococcus aureus clinical isolate 003 assessed as inhibition of bacterial growth by measuring ratio of MBC to MIC; format: functional
[4] = test system: Cell membrane; experiment: Disruption of membrane permeability in multidrug resistant Enterococcus faecalis ATCC 51299 assessed as increase in fluorescence intensity at 4 to 8 times MIC by PI staining based analysis
[5] = test system: Enterococcus faecalis; experiment: Antibacterial activity against multidrug resistant Enterococcus faecalis ATCC 51299 at 2 to 4 times MIC measured after 8 to 12 hrs by time-kill assay; format: functional, organism-based; conditions: time 8-12 hrs
[6] = test system: Staphylococcus aureus; experiment: Antibacterial activity against methicillin resistant Staphylococcus aureus clinical isolate 003 in presence of cardiolipin; format: functional, organism-based
[7] = test system: Enterococcus faecalis; experiment: Antibiofilm activity in multidrug resistant Enterococcus faecalis ATCC 51299 assessed as inhibition of biofilm formation at 4 times MIC by crystal violet staining based analysis relative to control; format: functional
[8] = test system: Cell membrane; experiment: Induction of cell membrane damage in multidrug resistant Enterococcus faecalis ATCC 51299 assessed as increase in red fluorescence at 2 to 4 times MIC by PI staining based analysis; format: cell membranes
[9] = test system: Staphylococcus aureus; experiment: Antibacterial activity against methicillin resistant Staphylococcus aureus clinical isolate 003 in presence of peptidoglycan; format: functional, organism-based
[10] = test system: Staphylococcus aureus; experiment: Antibacterial activity against methicillin resistant Staphylococcus aureus clinical isolate 011; format: functional
[11] = test system: Staphylococcus aureus; experiment: Antibiofilm activity in methicillin resistant Staphylococcus aureus clinical isolate 003 assessed as destruction of biofilm integrity at 0.5 to 4 times MIC measured after 24 hrs by inverted fluorescence microscopic analysis; format: functional, organism-based
[12] = test system: Enterococcus faecalis; experiment: Antibacterial activity against multidrug resistant Enterococcus faecalis ATCC 51299; format: functional
[13] = test system: Enterococcus faecalis; experiment: Antibiofilm activity in multidrug resistant Enterococcus faecalis ATCC 51299 assessed as biofilm clearance at 0.5 to 4 times MIC by crystal violet staining based analysis; format: functional, organism-based
[14] = test system: Staphylococcus aureus; experiment: Antibiofilm activity in methicillin resistant Staphylococcus aureus clinical isolate 003 assessed as inhibition of biofilm formation at 4 times MIC by crystal violet staining based analysis relative to control; format: functional
[15] = test system: Enterococcus faecalis; experiment: Antibacterial activity against multidrug resistant Enterococcus faecalis ATCC 51299 in presence of cardiolipin; format: functional, organism-based
[16] = test system: Cell membrane; experiment: Induction of cell membrane damage in methicillin resistant Staphylococcus aureus clinical isolate 003 assessed as increase in green fluorescence at 2 to 4 times MIC by SYTOX Green dye based analysis; format: cell membranes
[17] = test system: Enterococcus faecalis; experiment: Antibiofilm activity in multidrug resistant Enterococcus faecalis ATCC 51299 assessed as reduction in biofilm density at 0.5 to 4 times MIC measured after 24 hrs by inverted fluorescence microscopic analysis; format: functional, organism-based
[18] = test system: Staphylococcus aureus; experiment: Antibacterial activity against Staphylococcus aureus clinical isolate 29; format: functional
[19] = test system: Cell membrane; experiment: Disruption of membrane permeability in multidrug resistant Enterococcus faecalis ATCC 51299 assessed as protein leakage at 2 to 4 times MIC; format: cell membranes
[20] = test system: Staphylococcus aureus; experiment: Antibiofilm activity in methicillin resistant Staphylococcus aureus clinical isolate 003 assessed as biofilm clearance at 0.5 to 4 times MIC by crystal violet staining based analysis; format: functional, organism-based
[21] = test system: Enterococcus faecalis; experiment: Antibacterial activity in multidrug resistant Enterococcus faecalis ATCC 51299 at sub-MIC measured after 20 passages; format: functional, organism-based
[22] = test system: Cell membrane; experiment: Induction of cell membrane damage in multidrug resistant Enterococcus faecalis ATCC 51299 assessed as bacterial death at 2 to 4 times MIC by confocal laser scanning microscopy; format: cell membranes
[23] = test system: Staphylococcus aureus; experiment: Antibacterial activity against methicillin resistant Staphylococcus aureus clinical isolate 031; format: functional
[24] = test system: Cell membrane; experiment: Disruption of membrane permeability in methicillin resistant Staphylococcus aureus clinical isolate 003 assessed as increase in fluorescence intensity at 4 to 8 times MIC by PI staining based analysis
[25] = test system: Cell membrane; experiment: Induction of cell membrane damage in methicillin resistant Staphylococcus aureus clinical isolate 003 assessed as bacterial death at 2 to 4 times MIC by confocal laser scanning microscopy; format: cell membranes
[26] = test system: Staphylococcus aureus; experiment: Antibacterial activity against Staphylococcus aureus clinical isolate 31; format: functional
[27] = test system: Cell membrane; experiment: Disruption of membrane permeability in multidrug resistant Enterococcus faecalis ATCC 51299 assessed as increase in ROS accumulation at 2 to 4 times MIC measured after 1 hr
[28] = test system: Enterococcus faecalis; experiment: Antibacterial activity against multidrug resistant Enterococcus faecalis ATCC 51299 in presence of phosphatidylglycerol; format: functional, organism-based
[29] = test system: Enterococcus faecalis; experiment: Antibacterial activity against multidrug resistant Enterococcus faecalis ATCC 51299 in presence of phosphatidylethanolamine; format: functional, organism-based
[30] = test system: Cell membrane; experiment: Induction of cell membrane damage in multidrug resistant Enterococcus faecalis ATCC 51299 assessed as increase in green fluorescence at 2 to 4 times MIC by SYTOX Green dye based analysis; format: cell membranes
[31] = test system: Enterococcus faecalis; experiment: Antibacterial activity against Enterococcus faecalis clinical isolate 7; format: functional
[32] = test system: Enterococcus faecalis; experiment: Antibiofilm activity in multidrug resistant Enterococcus faecalis ATCC 51299 assessed as destruction of biofilm integrity at 0.5 to 4 times MIC measured after 24 hrs by inverted fluorescence microscopic analysis; format: functional, organism-based
[33] = test system: Cell membrane; experiment: Induction of membrane damage in multidrug resistant Enterococcus faecalis ATCC 51299 assessed as deformation of bacterial surface at 2 to 4 times MIC by SEM analysis; format: cell membranes
[34] = test system: Cell membrane; experiment: Disruption of membrane permeability in multidrug resistant Enterococcus faecalis ATCC 51299 assessed as increase in malondialdehyde level
[35] = test system: Staphylococcus aureus; experiment: Antibacterial activity against methicillin resistant Staphylococcus aureus clinical isolate 003; format: functional
[36] = test system: Staphylococcus aureus; experiment: Antibiofilm activity in methicillin resistant Staphylococcus aureus clinical isolate 003 assessed as reduction in biofilm density at 0.5 to 4 times MIC measured after 24 hrs by inverted fluorescence microscopic analysis; format: functional, organism-based
[37] = test system: Cell membrane; experiment: Induction of membrane damage in multidrug resistant Enterococcus faecalis ATCC 51299 assessed as rupture of bacterial surface at 2 to 4 times MIC by SEM analysis; format: cell membranes
[38] = test system: Enterococcus faecalis; experiment: Antibiofilm activity in multidrug resistant Enterococcus faecalis ATCC 51299 assessed as biofilm clearance rate at 4 times MIC by crystal violet staining based analysis relative to control; format: functional
[39] = test system: Enterococcus faecalis; experiment: Bactericidal activity against multidrug resistant Enterococcus faecalis ATCC 51299 assessed as inhibition of bacterial growth by measuring ratio of MBC to MIC; format: functional
[40] = test system: Staphylococcus aureus; experiment: Antibacterial activity in methicillin resistant Staphylococcus aureus clinical isolate 003 at sub-MIC measured after 20 passages; format: functional, organism-based
[41] = test system: Staphylococcus aureus; experiment: Antibiofilm activity in methicillin resistant Staphylococcus aureus clinical isolate 003 assessed as biofilm clearance rate at 4 times MIC by crystal violet staining based analysis relative to control; format: functional
[42] = test system: Staphylococcus aureus; experiment: Antibacterial activity against methicillin-resistant Staphylococcus aureus clinical isolate 003 at 2 to 4 times MIC measured after 8 to 12 hrs by time-kill assay; format: functional, organism-based; conditions: time 8-12 hrs
[43] = test system: Cell membrane; experiment: Disruption of membrane permeability in methicillin resistant Staphylococcus aureus clinical isolate 003 assessed as increase in ROS accumulation at 2 to 4 times MIC measured after 1 hr
[44] = test system: Staphylococcus aureus; experiment: Antibacterial activity against methicillin resistant Staphylococcus aureus clinical isolate 003 in presence of phosphatidylglycerol; format: functional, organism-based

CCCCCCc1c(-c2ccc(OCCCCN(C)C)cc2OCCCCN(C)C)oc2cc(OC)cc(O)c2c1=O
Activity [1]: Dose-Dependent Effect
Activity [2]: inactive
Ratio [3]: <4
Activity [4]: Active
Activity [5]: Active
Activity [6]: inactive
inhibition (INH) [7]: >90%
Activity [8]: Active
Activity [9]: Active
MIC [10]: 1 µg/mL (≈ 1.72 µM)
Activity [11]: Dose-Dependent Effect
MIC [12]: 1 µg/mL (≈ 1.72 µM)
Activity [13]: Dose-Dependent Effect
inhibition (INH) [14]: >90%
Activity [15]: inactive
Activity [16]: Active
Activity [17]: Dose-Dependent Effect
MIC [18]: 0.5 µg/mL (≈ 0.858 µM)
Activity [19]: Active
Activity [20]: Dose-Dependent Effect
Activity [21]: Active
Activity [22]: Active
MIC [23]: 1 µg/mL (≈ 1.72 µM)
Activity [24]: Active
Activity [25]: Active
MIC [26]: 1 µg/mL (≈ 1.72 µM)
Activity [27]: Active
Activity [28]: inactive
Activity [29]: inactive
Activity [30]: Active
MIC [31]: 1 µg/mL (≈ 1.72 µM)
Activity [32]: Dose-Dependent Effect
Activity [33]: Active
Activity [34]: Active
MIC [35]: 0.5 µg/mL (≈ 0.858 µM)
Activity [36]: Dose-Dependent Effect
Activity [37]: Active
Activity [38]: ~80%
Ratio [39]: <4
Activity [40]: Active
Activity [41]: ~80%
Activity [42]: Active
Activity [43]: Active
Activity [44]: inactive

CCCCCCc1c(-c2ccc(OCC(=O)CN[C@H](CCCNC(=N)N)C(=O)OC)cc2OCC(=O)CN[C@H](CCCNC(=N)N)C(=O)OC)oc2cc(OC)cc(O)c2c1=O
Activity [1]: Dose-Dependent Effect
Activity [2]: inactive
Ratio [3]: <4
Activity [4]: Active
Activity [5]: Active
Activity [6]: inactive
inhibition (INH) [7]: >90%
Activity [8]: Active
Activity [9]: Active
MIC [10]: 1 µg/mL (≈ 1.15 µM)
Activity [11]: Dose-Dependent Effect
MIC [12]: 32 µg/mL (≈ 36.8 µM)
Activity [13]: Dose-Dependent Effect
inhibition (INH) [14]: >90%
Activity [15]: inactive
Activity [16]: Active
Activity [17]: Dose-Dependent Effect
MIC [18]: 2 µg/mL (≈ 2.3 µM)
Activity [19]: Active
Activity [20]: Dose-Dependent Effect
Activity [21]: Active
Activity [22]: Active
MIC [23]: 2 µg/mL (≈ 2.3 µM)
Activity [24]: Active
Activity [25]: Active
MIC [26]: 1 µg/mL (≈ 1.15 µM)
Activity [27]: Active
Activity [28]: inactive
Activity [29]: inactive
Activity [30]: Active
MIC [31]: 64 µg/mL (≈ 73.6 µM)
Activity [32]: Dose-Dependent Effect
Activity [33]: Active
Activity [34]: Active
MIC [35]: 1 µg/mL (≈ 1.15 µM)
Activity [36]: Dose-Dependent Effect
Activity [37]: Active
Activity [38]: ~80%
Ratio [39]: <4
Activity [40]: Active
Activity [41]: ~80%
Activity [42]: Active
Activity [43]: Active
Activity [44]: inactive

CCCCCCc1c(-c2ccc(OCCCCNCCCN)cc2OCCCCNCCCN)oc2cc(OC)cc(O)c2c1=O
Activity [1]: Dose-Dependent Effect
Activity [2]: inactive
Ratio [3]: <4
Activity [4]: Active
Activity [5]: Active
Activity [6]: inactive
inhibition (INH) [7]: >90%
Activity [8]: Active
Activity [9]: Active
MIC [10]: 0.25 µg/mL (≈ 0.39 µM)
Activity [11]: Dose-Dependent Effect
MIC [12]: 1 µg/mL (≈ 1.56 µM)
Activity [13]: Dose-Dependent Effect
inhibition (INH) [14]: >90%
Activity [15]: inactive
Activity [16]: Active
Activity [17]: Dose-Dependent Effect
MIC [18]: 0.5 µg/mL (≈ 0.78 µM)
Activity [19]: Active
Activity [20]: Dose-Dependent Effect
Activity [21]: Active
Activity [22]: Active
MIC [23]: 0.25 µg/mL (≈ 0.39 µM)
Activity [24]: Active
Activity [25]: Active
MIC [26]: 0.25 µg/mL (≈ 0.39 µM)
Activity [27]: Active
Activity [28]: inactive
Activity [29]: inactive
Activity [30]: Active
MIC [31]: 1 µg/mL (≈ 1.56 µM)
Activity [32]: Dose-Dependent Effect
Activity [33]: Active
Activity [34]: Active
MIC [35]: 0.25 µg/mL (≈ 0.39 µM)
Activity [36]: Dose-Dependent Effect
Activity [37]: Active
Activity [38]: ~80%
Ratio [39]: <4
Activity [40]: Active
Activity [41]: ~80%
Activity [42]: Active
Activity [43]: Active
Activity [44]: inactive
